Assay [1] has as its target T1, Human CCR5 (Homo sapiens, UniProt P51681). Briefly: CCR5 functional assay - Ca2+ mobilization in CHO K1 transfectants. Also noted: expressed in transfected cells. It counts as cell-based. As to the method:
b) CCR5 Functional Assay—Ca^2+ Mobilization
These CCR5 transfectants are used for assessing Ca^2+ mobilization in response to stimulation by the CCR5 ligands MIP-1α, MIP-1β, HCC-1(9-74) or RANTES. For the assay the cells are loaded with a Ca^2+-sensitive fluorochrome (Fluo3 or Fluo4). Ligand concentrations between 0.01-100 nM are used to induce Ca^2+ mobilization which is monitored in a fluorometer with appropriate settings.
To assess the activity of the compounds to be tested, a baseline fluorescence reading is taken after which the compounds at the desired concentration are added to the cells and fluorescence is further recorded for a certain time to assess whether compounds show agonistic effects. Next the agonist is added to the mixture and fluorescence monitored. The inhibition of Ca^2+ flux in the presence of the compounds to be tested is calculated from the inhibition of maximal fluorescence induced by the agonist. IC50 values are calculated from dose-response curves obtained with the compounds. […] For example, compounds of Example 1, 18 and 52 have an IC50 of 10, 9 and 4, respectively.
In general terms: A change in cytosolic calcium serves as a functional read-out for many receptors and channels.

Assay [2] concerns the target T1, Human CCR5. Briefly: CCR5 membrane binding assay (125-I MIP-1α radioligand).
Procedure: a) CCR5 Membrane Binding Assay
Human CCR5 is used to generate stable transfectants in CHO K1 cells. Membranes prepared from these CCR5 transfectants are used In a radioligand binding assay using 125-I MIP-1α as a ligand and the compounds of formula I are tested for inhibitory activity. The data are reported as IC50, i.e. the concentration of compound required to achieve 50% inhibition of [I-125]MIP-1α binding.

T1 sequence (P51681 whole entry): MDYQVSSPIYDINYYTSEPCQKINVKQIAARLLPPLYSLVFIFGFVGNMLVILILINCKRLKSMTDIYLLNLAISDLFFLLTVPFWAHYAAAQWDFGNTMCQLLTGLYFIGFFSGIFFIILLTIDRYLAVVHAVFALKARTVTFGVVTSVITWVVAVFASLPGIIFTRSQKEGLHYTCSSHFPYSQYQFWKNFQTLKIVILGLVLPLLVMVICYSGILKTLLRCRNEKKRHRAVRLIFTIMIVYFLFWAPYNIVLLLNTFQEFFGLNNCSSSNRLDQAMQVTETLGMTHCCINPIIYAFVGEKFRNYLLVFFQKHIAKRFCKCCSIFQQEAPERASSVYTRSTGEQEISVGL

For orientation: IC50 means the concentration needed to halve the response being measured. Consider `CC1(N2CCC(N(c3ccccc3)c3ccccc3)CC2)CCN(C(=O)c2c(Cl)c[n+]([O-])cc2Cl)CC1` [Example 18], for which, in assay [1] (CCR5-transfected CHO K1 cells, agonist MIP-1α, MIP-1β, HCC-1(9-74) or RANTES, Fluo3 or Fluo4, read-out: IC50, inhibition of Ca2+ flux), the IC50 came out at 9 nM.

For `Cc1cccc(C)c1C(=O)N1CCC(C)(N2CCC(N(Cc3ccccc3)c3ccc(Br)cc3)CC2)CC1` [Example 52, {4-[Benzyl-(4-bromo-phenyl)amino]-4′-methyl-[1,4′]bipiperidinyl-1′-yl}-(2,6-dimethyl-phenyl)-methanone], in assay [1], it took 4 nM to reach half-maximal inhibition (IC50).

For the compound `Cc1nc(CN(c2ccccc2)C2CCN(C3(C)CCN(C(=O)c4c(C)cc[n+]([O-])c4C)CC3)CC2)cs1` [Example 83, (2,4-Dimethyl-1-oxy-pyridin-3-yl)-{4′-methyl-4-[(2-methyl-thiazol-4-ylmethyl)-phenyl-amino]-[1,4′]bipiperidinyl-1′-yl}-methanone], in assay [2], the IC50 lay in the range of 2 to 3 nM.

The values are drawn from patent publication US20040142920A1, “Bipiperidinyl-derivatives and their use as chemokine receptors inhibitors” (priority 2001, published 2004).
